Results: patent publication US20240068023A1 (The Trustees of Indiana University, priority 2021, published 2024)
Entries after “also recorded” stand apart in the source; their conditions may differ. Like-named read-outs stand apart in the source and are kept apart here.

Legend:
[1] = equations 7, 10; decrease
Excerpt: Oral doses were either given as a tablet or a suspension depending on the patient's convenience. […] The time schedule was later modified to collect more samples through the 1st and 3rd inter-dose interval without samples through the 2n d interdose interval. This was done to aid in the optimal spread of the collected concentration time-points and improvement of estimation of absorption parameters of the oral doses. Some of the samples collected in a parallel study were also used whenever available with the consent of the patient to aid with the better estimation of the terminal elimination phase.
The first-order conditional estimation method with η-ε interaction (FOCE-I) was used throughout the model building process. The dose of the drug, concentrations of the drug and the metabolite were converted to their molar counterparts to aid in the accurate estimation of the pharmacokinetic parameters. Perl-Speaks-NONMEM v.4.9.0, R v.4.0.4 (R Foundation for Statistical Computing) with the Xpose4 package v.4.6.0, RStudio v1.4 and Pirana v.2.9.9 were used for data exploration, visualization, diagnostics and automation. Measured plasma concentrations that were below the LLOQ were dealt with using the M1 method (discarding concentrations below the LLOQ and estimate the PK parameters using the remaining concentrations). […] Model assessment was based on successful minimization, OFV, the proper running of the covariance step, relative standard error of the parameter estimates, the goodness of fit plots and eta-shrinkage. Model validation was done using visual predictive checks and a bootstrapping procedure. The predictive performance of the models was evaluated using prediction corrected visual predictive checks (n=1000). The robustness of the final parameter estimates and the stability of the final model were validated using bootstrapping by generating 1000 resampled datasets with replacement.
The model building process was done in a step-wise process. Multiple disposition models (one-, two- and three-compartment) were evaluated. Absorption models with various absorption parameters (first order absorption with and without lag, transit compartment models) were tried. Bioavailability was estimated as each patient had both intravenous and oral dose data. […] Vf was fixed to 1 in the model due to unidentifiability of the metabolite parameters as there were no urine data available for either the drug or the metabolite. CLF is the fraction of CL, the total clearance of the drug that contributes to CL2, the clearance towards the formation of the metabolite. […]
The demographic covariates checked were biological gender, body weight, fat free mass, BMI and race. […] AAG was measured at every time-point the concentrations were measured and were therefore used as a time-varying covariate in the model. […]

[2] = system: adolescents undergoing PSF that received methadone; assay: Preliminary pharmacogenetic associations in 50 PSF adolescents that received methadone; type: in vivo, human
Excerpt: OPRM1 rs1799971 is also associated with susceptibility to dependence.

[3] = system: children undergoing PE and PSF surgeries; assay: Safety of multidose perioperative methadone: respiratory depression, PONV, QTc (Example 1)
[4] = cited from earlier work
[5] = Plasma R-, S- and total methadone concentrations after multiple small perioperative methadone doses (Example 1); conditions: human, in vivo, 0.1 mg/kg/dose
AAG = conditions: plasma; cited from earlier work
[6] = system: adolescents undergoing PSF; conditions: cited from earlier work; for postoperative opioid use (morphine equivalents): another adolescent PSF study, single larger intraoperative methadone dose; for mean morphine equivalent dose 0-72 hour: historical cohort
[7] = system: children undergoing PE and PSF surgeries; assay: Regression of clinical outcomes on pharmacokinetic measures (Example 1, Table 3); conditions: logistic regression; CI in next column
[8] = system: children undergoing PE and PSF surgeries; assay: Postoperative opioid use, pain scores, FDI and hospital stay with multidose methadone-based multimodal analgesia (Example 1); type: in vivo, human; conditions: for postoperative opioid use (morphine equivalents): current Example
[9] = system: children undergoing PE and PSF surgeries; assay: CYP2B6 genetic associations with methadone-induced PONV and pain scores (Example 3); type: in vivo, human
Excerpt: This Example is a prospective, genotype-blinded, clinical observational study of children undergoing Nuss bar repair for pectus excavatum (PE) and posterior spinal fusion (PSF) repair for idiopathic scoliosis that received multidose methadone-based multimodal analgesia, performed in a tertiary care pediatric hospital.
Multimodal analgesia protocols as illustrated in TABLE 1 set forth above in Example 1 were followed for all the participants undergoing the surgeries.
The primary clinical outcome measured was PONV. The secondary outcome measured was maximum postoperative pain scores. Episodes of PONV were recorded as a binary outcome from nursing reports on electronic health records. Analgesic efficacy was described in terms of patient self-reported pain scores. Pain scores were collected every 2 to 4 h using a self-reported numeric rating scale ranging from 0 to 10.
Analyses were performed using the dominant, additive or recessive models to explore for possible associations. Associations were tested using ‘A’ as the referent allele and ‘a’ as the alternative allele under dominant model (i.e. AA vs. Aa/aa), additive model (i.e. AA vs. Aa vs. aa) and recessive model (i.e. AA/Aa vs. aa). Linear regression was used to investigate SNP associations for pain score. Poisson regression was used to investigate SNP associations for PONV. Unadjusted as well as covariate-adjusted analyses, adjusted for weight, race, age, surgery type and sex were performed. For primary outcome, PONV, the SNP's rate ratios (i.e. exponential of the slope parameter in the Poisson regression), p-values and 95% Cis were computed. For postoperative pain score, the SNPs' effect (i.e. the slope parameter in the linear regression model), p-values, and 95% confidence intervals (CIs) were computed.
Because eight SNPs were used for the final analysis, a Bonferroni correction was used for multiple comparisons for the primary outcome measure, which yielded a significance threshold of p=0.00625 [p=0.05/8 SNPs)].

[10] = postoperative day 1, median (IQR)
[11] = postoperative day 2, median (IQR)
[12] = postoperative day 3, median (IQR)
[13] = postoperative day 4, median (IQR)
[14] = postoperative day 5, median (IQR)

CCC(=O)C(C[C@@H](C)N(C)C)(c1ccccc1)c1ccccc1 [R-methadone]
fractional change of V2 per active allele rs17650 (ORM1) [1]: 0.443 | proportional change of V2 per unit AAG conc from 94.76 [1]: 0.00291

CCC(=O)C(CC(C)N(C)C)(c1ccccc1)c1ccccc1 (racemic) [methadone]
average in-hospital opioid use ([2]; OPRM1 rs1799971 AA genotype): 33.2 ± 8.0 mg | average in-hospital opioid use ([2]; OPRM1 rs1799971 GG and GA genotype): 40.1 ± 6.1 mg | hospital stay ([2]; adolescents other than FAAH rs3766246 wild type): 2.6 ± 0.8 days | lower in-hospital opioid use, homologous/heterologous variants of FAAH rs3766246 and rs4141964 ([2]; compared with the wild type): 15-20% | higher average in-hospital opioid use, OPRM1 rs1799971 GG and GA vs AA genotype ([2]; in vivo): 20% | longer hospital stay, wild type of FAAH rs3766246 ([2]; than others): 1 days | episodes of PONV ([3]; 38 children): 18 | respiratory depression observed ([3]; 38 children receiving multiple dose of methadone): 0% | respiratory depression (in words) ([3]; 38 children, 95% Wilson binomial confidence [0, 0.09]): No child in this Example had respiratory depression; also recorded: no patient had respiratory depression | Postoperative QTc ([3]; median (IQR), Bazett's formula): 431 (414-440) ms | postoperative QTc longer than preoperative QTc interval ([3]; median, IQR -10, 28): 9 ms | patients with PONV ([3]; of 38 children): 12 | contribution of CYP3A4 to the metabolism of the drug ([4]; in vivo): more than 50% | parent drug eliminated in urine ([4]; in vivo): 10-20% | inter-individual variation in blood levels after methadone administration ([4]; up to): ≤ 17 fold | Cmax [5]: 24.7 ng/mL | bound to AAG (AAG): 80-90% | incidence of postoperative respiratory depression ([6]; 7 out of 31 receiving intraoperative methadone, first 48 hours): 22.6% | postoperative opioid use (morphine equivalents) ([6]; postoperative day 1): 0.54 mg/kg | postoperative opioid use (morphine equivalents) ([6]; postoperative day 2): 1.08 mg/kg | postoperative opioid use (morphine equivalents) ([6]; postoperative day 3): 1.29 mg/kg | mean morphine equivalent dose 0-72 hour ([6]; single intraoperative methadone 0.3 mg/kg): 221 | mean morphine equivalent dose 0-72 hour ([6]; single intraoperative methadone of 0.1 mg/kg): 277 mg | PONV incidence in other studies ([6]; in vivo): 33-38% | incidence of respiratory depression ([6]; large observational study, intraoperative methadone of 0.14 mg/kg and postoperative opioids): 37% | OR, Nausea/Vomiting vs Methadone dose per kg per day [7]: 3.1e3 | mean morphine equivalent, multi-dose methadone regimen ([8]; 0-72 hour, standard deviation 28.4): 113.25 | median FDI score ([8]; 3 months postoperatively, median (IQR)): 4 (0-9.5) | median FDI score ([8]; 6 months postoperatively, median (IQR)): 2 (0-4) | median FDI score ([8]; 12 months postoperatively, median (IQR)): 0 (0-3.5) | Average pain scores during the entire in-hospital stay ([8]; PE): 3.60 | median hospital stay ([8]; PE): 4 days | Average pain scores during the entire in-hospital stay ([8]; PSF): 3.95 | median hospital stay ([8]; PSF): 3 days | median total opioid usage ([8]; following PE): 2.6 mg/kg | median total opioid usage ([8]; following PSF): 2.1 mg/kg | Average morphine equivalent dose ([8]; median (IQR)): 0.66 (0.59-0.74) mg/kg/day | median usage of the common rescue opioids ([8]; not different between the surgeries): 0.03 mg/kg morphine equivalents | Average pain score ([8]; numeric rating scale 0 to 10, median (IQR)): 3.53 (2.73-4.80) | postoperative opioid use (morphine equivalents) ([8]; postoperative day 1): 0.6 mg/kg | Pain scores [8, 10]: 3.5 (2.3-5.1) | morphine equivalent units, including methadone doses [8, 10]: 0.61 (0.56-0.65) MEU/kg | postoperative opioid use (morphine equivalents) ([8]; postoperative day 2): 0.88 mg/kg | Pain scores [8, 11]: 3.4 (2.9-4.6) | morphine equivalent units, including methadone doses [8, 11]: 0.88 (0.68-1.06) MEU/kg | postoperative opioid use (morphine equivalents) ([8]; postoperative day 3): 0.64 mg/kg | Pain scores [8, 12]: 3.7 (2.0-5.2) | morphine equivalent units, including methadone doses [8, 12]: 0.58 (0.37-0.85) MEU/kg | Pain scores [8, 13]: 3.8 (2.7-5.0) | morphine equivalent units, including methadone doses [8, 13]: 0.42 (0.35-0.58) MEU/kg | Pain scores [8, 14]: 3.7 (3.3-4.4) | morphine equivalent units, including methadone doses [8, 14]: 0.59 (0.21-0.67) MEU/kg | mean morphine equivalent dose in the first 72 postoperative hours ([8]; printed as mean (95% CI: 98.5-131.8)): 120.2 mg | opioid use reduction ([8]; vs historical PCA opioids without intraoperative methadone, first 72 postoperative hours): 58.67% | opioid use reduction ([8]; vs historical single intraoperative methadone of 0.1 mg/kg): 59.12% | opioid use reduction ([8]; vs historical single intraoperative methadone of 0.2 mg/kg): 47.81% | opioid use reduction ([8]; vs historical single intraoperative methadone of 0.3 mg/kg): 48.76% | Morphine equivalent - Fusion ([9]; mean): 0.6 mg/kg | Morphine equivalent - Pectus ([9]; mean): 0.7 mg/kg | Length of hospital stay ([9]; mean, 53 children): 2.7 days | Beta, patient reported pain scores ([9]; rs4803419, Recessive model TT vs CC/TT (so in the source), Covariate adjusted analysis): −1.70 | Beta, patient reported pain scores ([9]; rs4803419, Recessive model TT vs CC/TT (so in the source), Unadjusted analysis): −1.78 | Beta, patient reported pain scores ([9]; rs10500282, Additive Model CC vs TT, Covariate adjusted analysis): −2.61 | Beta, patient reported pain scores ([9]; rs10500282, Additive Model CC vs TT, Unadjusted analysis): −2.00 | Beta, patient reported pain scores ([9]; rs10500282, Additive Model TC vs TT, Covariate adjusted analysis): 1.31 | Beta, patient reported pain scores ([9]; rs10500282, Additive Model TC vs TT, Unadjusted analysis): 1.33 | Beta, patient reported pain scores ([9]; rs10500282, Dominant model TC/CC vs TT, Covariate adjusted analysis): 1.18 | Beta, patient reported pain scores ([9]; rs10500282, Dominant model TC/CC vs TT, Unadjusted analysis): 1.16 | Beta, patient reported pain scores ([9]; rs11882424, Additive Model TC vs TT, Covariate adjusted analysis): 2.12 | Beta, patient reported pain scores ([9]; rs11882424, Additive Model TC vs TT, Unadjusted analysis): 2.19 | Beta, patient reported pain scores ([9]; rs11882424, Dominant model TC/CC vs TT, Covariate adjusted analysis): 2.12 | Beta, patient reported pain scores ([9]; rs11882424, Dominant model TC/CC vs TT, Unadjusted analysis): 2.19

CCC(=O)C(C[C@H](C)N(C)C)(c1ccccc1)c1ccccc1 [S-methadone]
fractional change of V2 per active allele rs17650 (ORM1) [1]: 0.526 | proportional change of V2 per unit AAG conc from 94.76 [1]: 0.00192
